Results: ChEMBL document CHEMBL3507680, “University of Dundee, Gates Library screen for HepG2 cell viability”

Test: Human HepG2 cell viability assay in 384 well format
Assay type: toxicity, cell-based
Set-up: dose 125 nL, time 70.5 hour; concentration not given beside the values
Settings: HepG2 cells, read-out: Inhibition

SMILES	cytotoxicity at 70.5 h
CN1C[C@H](O)[C@]2(CCN(C(=O)COc3ccccc3)C2)S1(=O)=O	-5.4%
CN1C[C@@H](O)[C@]2(CCN(C(=O)c3ccccc3)C2)S1(=O)=O	-7.54%
CN1C[C@@H](O)[C@]2(CCN(C(=O)OCc3ccccc3)C2)S1(=O)=O	-10.5%
CNC(=O)CC1c2cccnc2C(=O)N1Cc1ccccc1 (stereo not drawn)	-4.81%
NC(=O)CC1c2cccnc2C(=O)N1Cc1ccccc1 (stereo not drawn)	-6.46%
CCCC(O)CN1CCC(=O)N(CCOC)Cc2ccccc21 (stereo not drawn)	-10.1%
CN1Cc2ccccc2N(CC(O)C(F)(F)F)CCC1=O (stereo not drawn)	-6.68%
CN1Cc2cc(F)ccc2N(CC(O)C(F)(F)F)CCC1=O (stereo not drawn)	11.8%
O=C1CCNc2ccc(F)cc2CN1Cc1ccccc1	2.31%
O=C1CCNc2ccc(F)cc2CN1Cc1ccco1	2.21%
O=C1CCNc2ccccc2CN1Cc1ccco1	-6.23%
COc1ccc2c(c1)CN(C)C(=O)CCN2CC(O)C(C)(C)C (stereo not drawn)	-6.98%
O=C1CN(C(=O)OCc2ccccc2)CC(O)CN1Cc1ccco1 (stereo not drawn)	12.1%
COc1ccccc1C(=O)N1CC(=O)N(Cc2ccco2)CC(O)C1 (stereo not drawn)	-12.4%
CC(C)COC(=O)N1CC(=O)N(Cc2ccco2)CC(O)C1 (stereo not drawn)	-3.84%
CCCC1CN(CCOc2ccccc2)C(=O)c2cccnc2O1 (stereo not drawn)	4.28%
CC(C)CN1C[C@H](COCc2ccccc2)Oc2ncccc2C1=O	23.1%
CNC(=O)[C@@H]1[C@@H](OC(=O)Nc2ccccc2)C(=O)N(C)C12CCNCC2	-2.76%
CCS(=O)(=O)N1CCC(OC)c2ccccc2N(CC(=O)NC)C(=O)C1 (stereo not drawn)	-1.92%
OCC1N(Cc2ccco2)[C@H]2CC[C@]1(O)CC2 (stereo partly drawn)	-9.15%
COCC1N(C(=O)c2ccc3c(c2)OCCCO3)[C@H]2CC[C@]1(O)CC2 (stereo partly drawn)	-6.94%
CCOC(=O)C1CC2(CCOCC2)N2CCC(=O)N12 (stereo not drawn)	-6.97%

SMILES	cytotoxicity at 70.5 h
O=S1(=O)c2ccccc2C(O)CN1CCO (stereo not drawn)	-5.7%
CCOC(=O)[C@@H]1CN2CCNC[C@@H]2[C@H]1c1ccccc1	-7.39%
CCOC(=O)[C@@H]1[C@@H](c2ccccc2)CN2CCN(C(=O)N(C)C)C[C@H]12	-5.43%
CCOC(=O)[C@@H]1[C@H]2CN(C(=O)OC)CCN2C[C@H]1c1ccccc1	-5.21%
CCCC(O)CN1CCC(=O)N(Cc2ccccc2)Cc2ccccc21 (stereo not drawn)	2.6%
COCC(O)CN1CCC(=O)N(Cc2ccco2)Cc2ccccc21 (stereo not drawn)	26.6%
COc1ccc(CN2CC(O)CN(C(=O)CC(C)C)CC2=O)cc1 (stereo not drawn)	4.85%
CC(O)CN1CC(C)(C)CN(C(=O)CCc2ccccc2)CC1=O (stereo not drawn)	-2.42%
CN1CC(C)(C)CN(C(=O)CCc2ccccc2)CC1=O	-1.8%
Cc1ccc(CN2CC(O)CN(C(=O)C3CC3)CC2=O)cc1 (stereo not drawn)	-5.26%
COc1cccc(OC)c1C(=O)N1CC(=O)N(C2CCC2)CC(O)C1 (stereo not drawn)	-0.00128%
CCOc1ccccc1C(=O)N1CC(=O)N(C2CCC2)CC(O)C1 (stereo not drawn)	-4.81%
COc1ccc(C(=O)N2CC(=O)N(C3CCC3)CC(O)C2)cc1OC (stereo not drawn)	-5.23%
O=C1CN(C(=O)c2cccc(C(F)(F)F)c2)CC(O)CN1CC1CC1 (stereo not drawn)	20.9%
CCN1CC(O)CN(C(=O)c2cccc(C(F)(F)F)c2)CC1=O (stereo not drawn)	-4.06%
CCN1CC(O)CN(C(=O)c2ccc(SC)cc2)CC1=O (stereo not drawn)	-4.25%
N#CCCN1CC(O)CN(C(=O)c2cccc(C(F)(F)F)c2)CC1=O (stereo not drawn)	-1.43%
COC1CCN(C(=O)NCC(N)=O)CC(=O)N(C)c2ccccc21 (stereo not drawn)	-5.28%
O=C(C1CC1)N1CCN2C[C@@H](CO)[C@H](c3ccccc3)[C@H]2C1	8.58%
NC(=O)[C@@H]1CN2CCN(C(=O)C3CC3)C[C@@H]2[C@H]1c1ccccc1	-2.24%
CNC(=O)[C@@H]1[C@@H](c2ccccc2)CN2CCN(Cc3ccccn3)C[C@H]12	-7.27%
O=C(C1CC1)N1CCN2C[C@H](c3ccccc3)[C@@H](CO)[C@H]2C1	-5.2%

SMILES	cytotoxicity at 70.5 h
CC(C)COC(=O)N1CC(=O)N(CCc2ccccc2)CC(O)C1 (stereo not drawn)	25.4%
COc1ccc(CN2CC(O)CN(C(=O)OCC(C)C)CC2=O)cc1 (stereo not drawn)	14.8%
COc1cccc(CN2CC(O)CN(C(=O)C(C)(C)C)CC2=O)c1OC (stereo not drawn)	50.4%
CC(C)COC(=O)N1CC(=O)N(Cc2ccc(Cl)cc2)CC(O)C1 (stereo not drawn)	-3.08%
COc1ccccc1CN1CC(O)CN(S(=O)(=O)C(C)C)CC1=O (stereo not drawn)	16.7%
CCOC(=O)N1CC(=O)N(CCc2ccccc2)CC(O)C1 (stereo not drawn)	5.59%
COC1CN(C(=O)C2CC2)CCC(=O)N(C)c2ccccc21 (stereo not drawn)	2.56%
COC1CN(C(=O)CC(C)C)CCC(=O)N(C)c2ccccc21 (stereo not drawn)	-7.01%
COC1CN(C(=O)COC(C)=O)CCC(=O)N(C)c2ccccc21 (stereo not drawn)	-5.15%
COC1CN(C(=O)CC2CCCC2)CCC(=O)N(C)c2ccccc21 (stereo not drawn)	21.5%
COC1CN(C(=O)NCC(N)=O)CCC(=O)N(C)c2ccccc21 (stereo not drawn)	-7.69%
COCC(=O)N1CCC(=O)N(C2CCCC2)Cc2cc(F)ccc21	-5.37%
O=C(O)CCCC(=O)N1CCC(c2noc3cc(F)ccc23)CC1	-13.8%
O=C(NC1CCC1)[C@H]1C[C@@H]2CN(S(=O)(=O)c3ccccc3)C[C@H]1O2	-1.64%
CC(C)OC[C@H]1CCC[C@]12CN(S(=O)(=O)C1CC1)CCO2	-0.771%
COCCN1CCc2ncc(CN(C)C)n2CC1	-0.491%
Cc1cnc(N2C[C@@H]3[C@@H](C2)OCC(=O)N3C)nc1	-8.76%
COCCN1CCc2ncc(CNc3cc(N(C)C)ncn3)n2CC1	-8.47%
Cc1nc(CN2CCc3nc(NC(C)C)nc(C)c3C2)cs1	-6.71%
CN(C)CCN1C(=O)CO[C@@H]2CN(c3ncc(F)cn3)C[C@H]21	-6.29%
COCC(=O)N1CCC2(CC1)CC(N1CCN(C)CC1)CO2 (stereo not drawn)	14.5%
Cc1ccc2c(c1)C1(CCNCC1)CC2N1CCOCC1 (stereo not drawn)	1.67%

SMILES	cytotoxicity at 70.5 h
CCN(C)C(=O)c1ccc2c(c1)C(c1nc[nH]n1)CN2S(C)(=O)=O (stereo not drawn)	-8.39%
CCc1cnc(NC2CCc3c(ccc(=O)n3C)C2)nc1 (stereo not drawn)	-5.8%
CC(C)CS(=O)(=O)N1CCC2(CC1)CCn1c(-c3cnn(C)c3)cnc12	32.9%
CO[C@H]1CN(S(=O)(=O)c2cn(C)cn2)[C@@H]2CCCO[C@H]12	24.5%
CC(=O)N1CCC2(CC1)CN(C(=O)c1cccc3[nH]ccc13)CCO2	27.3%
Cc1cnc(NC2CCc3c(ccc(=O)n3CC3CC3)C2)nc1 (stereo not drawn)	-5.47%
CCC(=O)N1CC[C@H]2C(=O)N(Cc3ccc(OC)cc3)CCO[C@H]2C1	34.1%
CC(C)n1nc(CNc2ncccn2)c2c1CN(S(C)(=O)=O)CC2	10.7%
Cc1cccc(CN2CC3C[C@]3(NC(=O)c3ccco3)C2)n1 (stereo partly drawn)	-4.13%
COC[C@]12COC[C@H]1CN(C(=O)c1ccc(F)cc1C)C2	0.0363%
CCO[C@H]1CN(C(=O)c2ccc3c(c2)OCO3)[C@@H]2COC[C@H]12	-2.21%
Cc1ccc(CN2C[C@H](N(C)Cc3cncnc3)[C@H]3OCCC[C@H]32)o1	-10.1%
CN(C)CCO[C@H]1CN(C(=O)c2ccc3c(c2)OCO3)[C@@H]2COC[C@H]12	-11.6%
Cc1cc(F)ccc1C(=O)N1C[C@@H]2COC[C@]2(COCC2CC2)C1	-10.8%
O=C(CN1C=Nc2ccccc2S1(=O)=O)NCc1ccccc1F	-9.4%
CN(Cc1cccc(C(N)=O)c1)Cc1nc2c(cnn2C)c(=O)[nH]1	-15.8%
O=C(CN1C=Nc2ccccc2S1(=O)=O)NCc1ccccc1	-9.5%
CC(C)(C)NC(=O)NC(=O)CN1C=Nc2ccccc2S1(=O)=O	-8.6%
CN(Cc1cccc(C#N)c1)Cc1nc2c(cnn2C)c(=O)[nH]1	-19%
Cc1noc(Cl)c1CCC(=O)N1CCN(Cc2ccncc2)CC1	-4.95%
COc1cc(CCC(=O)NCC2CC2)ccc1OCC(F)(F)F	-11.6%
Cc1noc(Cl)c1CCC(=O)N1CCN(CC(C)(C)O)CC1	7.84%

SMILES	cytotoxicity at 70.5 h
Cc1cnn(CCNCC(=O)NCCOc2ccc(Cl)cc2)c1	-13%
O=C(CN1C=Nc2ccccc2S1(=O)=O)NCCCc1ccccc1	-12.6%
Cc1noc(Cl)c1CCC(=O)N1CCN(c2cnccn2)CC1	-16.7%
CCN(CC)C(=O)C1CCC2(CCNCC2)O1 (stereo not drawn)	-12.5%
CCN(CC)C(=O)C1CCC2(CCNCC2)CO1 (stereo not drawn)	-14.2%
c1cnc(N2CCCn3nnc(COCC4CC4)c3C2)nc1	-1.29%
Cn1ccc(CN2CCC3(CC2)CC(Nc2cnccn2)CO3)n1 (stereo not drawn)	-1.03%
COCCN1CCC2(CC1)CC(Nc1ccc(C)nn1)CO2 (stereo not drawn)	-2.32%
CCCS(=O)(=O)N1CCC2(CC1)CC(N1CCCC1)c1ccccc12 (stereo not drawn)	-8.52%
CN(C)CCN1C(=O)CC[C@@H]2[C@H]1CCN2C(=O)c1ccc(C#N)cc1	-7.83%
Cc1nnc([C@]23COC[C@H]2CN(Cc2nccs2)C3)o1	-10.3%
CS(=O)(=O)N[C@@H]1CCO[C@]2(CCN(CC3CCOCC3)C2)C1	-5.05%
CS(=O)(=O)N[C@H]1CCO[C@]2(CCN(CC3CCOCC3)C2)C1	-11.1%
CC(=O)N1Cc2nccn2CC(CNC(=O)c2cccnc2)C1 (stereo not drawn)	-11.5%
CN(C)Cc1noc2c1CN(Cc1ccsc1)CC2	-5.59%
Cc1ccc(C(=O)N2CC[C@@H]3[C@H]2CCC(=O)N3CCN(C)C)cn1	18.5%
CC(=O)N(C)Cc1nn(C)c2c1CN(Cc1ccsc1)C2	-6.65%
c1ccc(CN2CCc3ncnc(C4CC4)c3CC2)nc1	-1.29%
CCO[C@@H]1C[C@H]2CN(Cc3ccc(C)o3)CCN2C1	-11.9%
c1csc(CN2CCO[C@@H]3CN(C4CCOCC4)C[C@@H]3C2)c1	-10%
